Test results reported in ChEMBL document CHEMBL5649166, “RIP3 induces apoptosis independent of pronecrotic kinase activity” (Mol Cell, 2014).
Calls of active or inactive are those of the source. No cut-off for these calls is given here.

Assays:
[1] = biological target: T1, Ephrin type-B receptor 2 (Homo sapiens) (UniProt P29323); test: Inhibition of human EPHB2 using poly[Glu:Tyr] (4:1) as substrate at 1 uM in presence of 32P-ATP by Hotspot assay relative to control; values are per cent of control
T1 sequence (whole entry): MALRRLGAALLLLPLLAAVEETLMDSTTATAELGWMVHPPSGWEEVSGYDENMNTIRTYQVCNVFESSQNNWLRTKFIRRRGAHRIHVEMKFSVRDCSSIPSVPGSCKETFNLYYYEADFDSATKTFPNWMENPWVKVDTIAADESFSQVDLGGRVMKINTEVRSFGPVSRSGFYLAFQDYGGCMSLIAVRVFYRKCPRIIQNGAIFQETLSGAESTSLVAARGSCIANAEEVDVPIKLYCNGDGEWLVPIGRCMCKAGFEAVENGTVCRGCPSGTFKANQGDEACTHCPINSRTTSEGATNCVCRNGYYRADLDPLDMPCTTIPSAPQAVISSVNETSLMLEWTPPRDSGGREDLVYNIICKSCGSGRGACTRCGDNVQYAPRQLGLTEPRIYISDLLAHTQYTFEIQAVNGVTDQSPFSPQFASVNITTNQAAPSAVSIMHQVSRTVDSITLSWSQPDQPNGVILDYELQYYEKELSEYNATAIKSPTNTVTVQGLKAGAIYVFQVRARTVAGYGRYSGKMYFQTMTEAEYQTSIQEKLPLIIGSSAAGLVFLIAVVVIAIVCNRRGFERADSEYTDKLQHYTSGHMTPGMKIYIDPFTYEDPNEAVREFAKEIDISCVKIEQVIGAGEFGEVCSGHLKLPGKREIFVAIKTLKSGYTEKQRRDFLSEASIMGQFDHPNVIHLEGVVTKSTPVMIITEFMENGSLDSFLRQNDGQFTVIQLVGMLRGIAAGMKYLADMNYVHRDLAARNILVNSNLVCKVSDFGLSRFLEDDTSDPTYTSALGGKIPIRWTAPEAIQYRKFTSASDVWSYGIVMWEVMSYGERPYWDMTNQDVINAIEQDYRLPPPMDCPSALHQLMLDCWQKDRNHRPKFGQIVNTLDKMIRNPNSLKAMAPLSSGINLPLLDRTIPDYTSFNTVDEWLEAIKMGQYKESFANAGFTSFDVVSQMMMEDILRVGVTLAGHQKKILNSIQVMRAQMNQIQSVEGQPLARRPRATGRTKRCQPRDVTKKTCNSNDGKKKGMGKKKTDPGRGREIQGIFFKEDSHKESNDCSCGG

[2] = biological target: T2, Testis-specific serine/threonine-protein kinase 2 (Homo sapiens) (UniProt Q96PF2); test: Inhibition of human TSSK2 using KKKVSRSGLYRSPSMPENLNRPR as substrate at 1 uM in presence of 32P-ATP by Hotspot assay relative to control; values are per cent of control
T2 sequence (whole entry): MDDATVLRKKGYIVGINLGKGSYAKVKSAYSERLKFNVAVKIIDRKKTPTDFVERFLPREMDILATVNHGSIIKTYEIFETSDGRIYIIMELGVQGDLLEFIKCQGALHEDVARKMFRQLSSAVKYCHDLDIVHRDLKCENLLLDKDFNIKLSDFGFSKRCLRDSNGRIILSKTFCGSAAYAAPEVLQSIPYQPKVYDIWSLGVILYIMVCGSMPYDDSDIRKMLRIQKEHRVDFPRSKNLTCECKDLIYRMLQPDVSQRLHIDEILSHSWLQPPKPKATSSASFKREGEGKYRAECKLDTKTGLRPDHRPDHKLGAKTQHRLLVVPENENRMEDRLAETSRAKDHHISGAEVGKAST

[3] = biological target: Serine/threonine-protein kinase PAK 6 (Homo sapiens) (UniProt Q9NQU5); test: Inhibition of human PAK6 using RRRLSFAEPG as substrate at 1 uM in presence of 32P-ATP by Hotspot assay relative to control; values are per cent of control
Sequence of Serine/threonine-protein kinase PAK 6 (Homo sapiens) (Q9NQU5 whole entry, looked up): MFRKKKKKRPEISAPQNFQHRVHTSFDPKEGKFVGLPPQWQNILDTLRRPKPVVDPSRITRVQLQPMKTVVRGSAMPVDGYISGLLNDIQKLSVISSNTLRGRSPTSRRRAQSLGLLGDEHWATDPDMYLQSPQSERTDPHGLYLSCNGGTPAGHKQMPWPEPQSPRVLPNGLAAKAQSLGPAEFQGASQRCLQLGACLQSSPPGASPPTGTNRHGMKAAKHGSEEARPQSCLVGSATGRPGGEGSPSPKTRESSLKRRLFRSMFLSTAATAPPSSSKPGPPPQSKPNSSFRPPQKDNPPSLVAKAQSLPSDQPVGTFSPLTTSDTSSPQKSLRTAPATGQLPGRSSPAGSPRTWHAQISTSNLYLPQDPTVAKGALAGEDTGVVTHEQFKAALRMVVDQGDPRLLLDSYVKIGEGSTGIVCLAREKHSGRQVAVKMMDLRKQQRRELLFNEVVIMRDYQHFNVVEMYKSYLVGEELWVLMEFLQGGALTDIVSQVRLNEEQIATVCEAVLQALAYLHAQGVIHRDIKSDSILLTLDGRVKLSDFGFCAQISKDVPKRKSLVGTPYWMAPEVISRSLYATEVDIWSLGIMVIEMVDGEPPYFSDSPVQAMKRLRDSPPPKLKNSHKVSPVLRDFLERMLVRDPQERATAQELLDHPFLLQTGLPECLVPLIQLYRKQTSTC

[4] = system: BMDM; test: Inhibition of TNF-alpha induced necroptosis in mouse BMDM cells assessed as increase in cell viability at 0.04 to 1 uM incubated for 18 hrs in presence of zVAD and BV6 by Cell Titer-Glo luminescent cell viability assay; assay type: functional, cell-based; settings: dose 0.04-1 µM
[5] = biological target: Cyclin-dependent kinase 5/CDK5 activator 1 (Homo sapiens) (UniProt Q00535+Q15078); test: Inhibition of human CDK5/p35 using RB Protein as substrate at 1 uM in presence of 32P-ATP by Hotspot assay relative to control; values are per cent of control
Sequence of Cyclin-dependent kinase 5/CDK5 activator 1 (Homo sapiens) (Q00535 whole entry): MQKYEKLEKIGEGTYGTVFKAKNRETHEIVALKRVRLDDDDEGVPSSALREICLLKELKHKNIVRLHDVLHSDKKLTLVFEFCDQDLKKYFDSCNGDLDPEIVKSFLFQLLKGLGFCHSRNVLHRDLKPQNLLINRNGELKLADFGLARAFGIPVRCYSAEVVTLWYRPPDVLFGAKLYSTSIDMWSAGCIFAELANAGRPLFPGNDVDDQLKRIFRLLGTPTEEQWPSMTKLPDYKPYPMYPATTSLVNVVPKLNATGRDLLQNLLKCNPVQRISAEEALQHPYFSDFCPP
Sequence of Cyclin-dependent kinase 5/CDK5 activator 1 (Homo sapiens) (Q15078 99-307 partner limits assumed): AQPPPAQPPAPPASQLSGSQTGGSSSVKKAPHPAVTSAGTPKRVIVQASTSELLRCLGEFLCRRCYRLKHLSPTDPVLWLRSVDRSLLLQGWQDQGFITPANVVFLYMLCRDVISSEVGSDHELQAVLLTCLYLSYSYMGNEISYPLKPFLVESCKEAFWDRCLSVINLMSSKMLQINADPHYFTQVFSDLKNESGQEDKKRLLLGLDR

[6] = biological target: Wee1-like protein kinase (Homo sapiens) (UniProt P30291); test: Inhibition of human WEE1 using CDK1 (D146N)/cyclin B1 as substrate at 1 uM in presence of 32P-ATP by Hotspot assay relative to control; values are per cent of control
Sequence of Wee1-like protein kinase (Homo sapiens) (P30291 whole entry, looked up): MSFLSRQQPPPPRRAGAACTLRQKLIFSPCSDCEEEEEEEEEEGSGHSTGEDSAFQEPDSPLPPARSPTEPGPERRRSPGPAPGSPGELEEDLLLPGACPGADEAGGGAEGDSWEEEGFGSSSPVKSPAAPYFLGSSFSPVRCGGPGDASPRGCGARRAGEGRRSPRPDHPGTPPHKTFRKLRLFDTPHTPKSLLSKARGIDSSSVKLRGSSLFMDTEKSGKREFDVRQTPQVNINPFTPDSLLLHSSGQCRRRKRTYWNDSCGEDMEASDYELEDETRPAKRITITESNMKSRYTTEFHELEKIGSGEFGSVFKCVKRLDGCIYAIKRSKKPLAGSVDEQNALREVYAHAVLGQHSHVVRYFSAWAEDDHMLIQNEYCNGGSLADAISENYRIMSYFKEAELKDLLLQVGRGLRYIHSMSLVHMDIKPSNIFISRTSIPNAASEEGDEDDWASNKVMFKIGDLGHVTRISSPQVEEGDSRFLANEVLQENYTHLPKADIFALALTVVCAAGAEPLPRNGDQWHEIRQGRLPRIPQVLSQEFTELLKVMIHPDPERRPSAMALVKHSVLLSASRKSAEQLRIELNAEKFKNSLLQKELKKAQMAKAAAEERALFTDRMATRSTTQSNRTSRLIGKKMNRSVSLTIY

[7] = biological target: Tyrosine-protein kinase ABL1 (Homo sapiens) (UniProt P00519); test: Inhibition of human ABL1 using EAIYAAPFAKKK as substrate at 1 uM in presence of 32P-ATP by Hotspot assay relative to control; values are per cent of control
Sequence of Tyrosine-protein kinase ABL1 (Homo sapiens) (P00519 whole entry): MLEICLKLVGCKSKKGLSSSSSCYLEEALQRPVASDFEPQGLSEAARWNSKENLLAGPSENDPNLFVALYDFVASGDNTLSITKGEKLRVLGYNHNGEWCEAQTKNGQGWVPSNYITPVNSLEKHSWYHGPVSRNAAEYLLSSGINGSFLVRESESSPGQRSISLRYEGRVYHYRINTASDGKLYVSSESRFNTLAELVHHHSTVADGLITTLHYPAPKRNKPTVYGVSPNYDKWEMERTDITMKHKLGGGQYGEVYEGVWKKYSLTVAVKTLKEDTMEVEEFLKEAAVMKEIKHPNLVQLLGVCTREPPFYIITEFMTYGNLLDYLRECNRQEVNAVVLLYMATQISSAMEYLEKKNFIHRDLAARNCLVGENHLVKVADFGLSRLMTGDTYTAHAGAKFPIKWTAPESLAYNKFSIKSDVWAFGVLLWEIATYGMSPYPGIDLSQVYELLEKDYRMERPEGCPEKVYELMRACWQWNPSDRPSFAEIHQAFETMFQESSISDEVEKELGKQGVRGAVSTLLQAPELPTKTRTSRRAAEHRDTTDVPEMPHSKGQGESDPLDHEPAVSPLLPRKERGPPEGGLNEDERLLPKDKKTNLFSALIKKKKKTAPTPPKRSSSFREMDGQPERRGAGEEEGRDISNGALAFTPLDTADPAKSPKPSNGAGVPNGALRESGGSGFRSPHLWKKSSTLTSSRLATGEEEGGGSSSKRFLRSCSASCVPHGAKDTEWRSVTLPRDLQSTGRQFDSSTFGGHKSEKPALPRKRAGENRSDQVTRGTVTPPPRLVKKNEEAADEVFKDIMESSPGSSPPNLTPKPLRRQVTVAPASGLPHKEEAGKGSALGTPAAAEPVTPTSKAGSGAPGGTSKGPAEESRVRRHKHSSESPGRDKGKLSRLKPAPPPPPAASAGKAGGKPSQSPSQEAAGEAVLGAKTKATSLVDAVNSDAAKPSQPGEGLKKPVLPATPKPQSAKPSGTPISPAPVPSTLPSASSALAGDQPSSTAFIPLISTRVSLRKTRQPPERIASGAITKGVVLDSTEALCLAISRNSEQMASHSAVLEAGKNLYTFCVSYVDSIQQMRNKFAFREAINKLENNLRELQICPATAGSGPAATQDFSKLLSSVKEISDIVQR

[8] = biological target: Receptor-type tyrosine-protein kinase FLT3 (Homo sapiens) (UniProt P36888); test: Inhibition of human FLT3 using EAIYAAPFAKKK as substrate at 1 uM in presence of 32P-ATP by Hotspot assay relative to control; values are per cent of control
Sequence of Receptor-type tyrosine-protein kinase FLT3 (Homo sapiens) (P36888 whole entry): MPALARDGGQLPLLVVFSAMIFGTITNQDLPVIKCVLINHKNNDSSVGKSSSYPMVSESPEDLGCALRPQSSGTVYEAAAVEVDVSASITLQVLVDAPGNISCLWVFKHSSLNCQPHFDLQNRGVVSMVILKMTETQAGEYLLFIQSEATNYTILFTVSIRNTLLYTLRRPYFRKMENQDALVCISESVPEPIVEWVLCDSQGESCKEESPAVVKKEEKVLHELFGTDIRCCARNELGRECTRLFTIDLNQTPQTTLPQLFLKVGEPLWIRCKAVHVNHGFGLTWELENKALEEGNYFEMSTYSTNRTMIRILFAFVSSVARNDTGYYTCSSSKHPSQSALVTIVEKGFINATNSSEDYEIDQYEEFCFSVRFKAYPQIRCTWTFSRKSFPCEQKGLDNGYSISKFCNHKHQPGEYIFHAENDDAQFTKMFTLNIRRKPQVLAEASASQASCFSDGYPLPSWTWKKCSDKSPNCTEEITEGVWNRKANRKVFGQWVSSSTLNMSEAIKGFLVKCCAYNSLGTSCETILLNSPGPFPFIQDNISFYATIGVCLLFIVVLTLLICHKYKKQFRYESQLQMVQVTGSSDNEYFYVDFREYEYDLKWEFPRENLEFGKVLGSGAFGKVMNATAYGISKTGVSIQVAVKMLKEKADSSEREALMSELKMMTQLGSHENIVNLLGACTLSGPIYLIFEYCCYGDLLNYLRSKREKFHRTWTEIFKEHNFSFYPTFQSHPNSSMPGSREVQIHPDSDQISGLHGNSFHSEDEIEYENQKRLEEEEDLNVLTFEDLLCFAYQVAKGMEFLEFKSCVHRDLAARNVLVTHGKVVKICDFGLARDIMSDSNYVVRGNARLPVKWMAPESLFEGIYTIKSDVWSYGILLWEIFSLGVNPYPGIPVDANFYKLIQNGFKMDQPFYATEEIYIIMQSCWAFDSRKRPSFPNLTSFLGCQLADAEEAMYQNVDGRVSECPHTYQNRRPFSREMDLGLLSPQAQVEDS

Structure (SMILES) | residual activity [1] | residual activity [2] | residual activity [3] | inhibition [4] | residual activity [5] | residual activity [6] | residual activity [7] | residual activity [8]
CC(C)S(=O)(=O)c1ccc2nccc(Nc3ccc4scnc4c3)c2c1 | 78.7% | 102% | 98.5% | Active | 98.7% | 106% | 25.8% | 87.9%
Cc1cc(-c2cnc(N)c3c(-c4ccc5scnc5c4)csc23)n(C)n1 | 31% | 97.2% | 106% | Active | 97.8% | 72.9% | 6.1% | 48%
CNC(=O)c1ccc2c(c1)ncn2-c1ccc(CC(=O)OC(C)(C)C)cc1 | 95% | 98.9% | 89.9% | inactive | 97.1% | 108% | 92.7% | 16%
